Consider twelve molecules from ChEMBL document CHEMBL1151022, “Modified triphosphates of carbocyclic nucleoside analogues: Synthesis, stability towards alkaline phosphatase and substrate properties for some DNA polymerases” (Bioorg Med Chem Lett, 1996).

Broadly, the half-life is the time in which the quantity being followed falls by half. A lower half-life goes with fast loss.

This data set in a line: Compound was evaluated for its stability to dephosphorylation. Type of data set: physicochemical.

Structures are written as SMILES.

For `Cc1cn([C@H]2C[C@H](N=[N+]=[N-])[C@@H](CO[P@](=O)(O)O[P@](=O)(O)OP(=O)(O)O)O2)c(=O)[nH]c1=O` [ZIDOVUDINE TRIPHOSPHATE], the half-life is below 0.0167 h.
In turn, `Nc1ncnc2c1ncn2[C@H]1C[C@H](O)[C@@H](COP(=O)(O)OP(=O)(O)OP(=O)(O)O)O1` displayed a half-life of 0.833 h.
With `Nc1ncnc2c1ncn2[C@@H]1C=C[C@H](OCP(=O)(O)OP(=O)(O)OP(=O)(O)O)C1` the figure was 3 h.
Molecule `Nc1nc(O)c2ncn([C@@H]3C=C[C@H](OCP(=O)(O)OP(=O)(O)OP(=O)(O)O)C3)c2n1` gave a half-life of 4 h.
Consider `Nc1nc(O)c2ncn([C@@H]3C=C[C@H](OCP(=O)(O)OP(=O)(O)C(Br)(Br)P(=O)(O)O)C3)c2n1`, for which the half-life was above 168 h.
`Nc1ncnc2c1ncn2[C@@H]1C[C@@H](OCP(=O)(O)CP(=O)(O)O)[C@@H]2C[C@@H]21` showed a half-life above 168 h.
For `Nc1ncnc2c1ncn2[C@H]1C[C@H](OCP(=O)(O)CP(=O)(O)O)[C@H]2C[C@H]21`, the half-life is above 168 h.
In turn, `Nc1nc2c(ncn2[C@H]2C[C@H](O)[C@@H](COP(=O)(O)OP(=O)(O)OP(=O)(O)O)O2)c(=O)[nH]1` [DEOXYGUANOSINE TRIPHOSPHATE] had a half-life of 1 h.
With `Nc1ncnc2c1ncn2[C@H]1C=C[C@@H](OCP(=O)(O)OP(=O)(O)OP(=O)(O)O)C1`, the half-life was 2 h.
As for `Nc1ncnc2c1ncn2[C@@H]1C[C@@H](OCP(=O)(O)OP(=O)(O)O)[C@@H]2C[C@@H]21`, the half-life was 4.5 h.
With `Nc1ncnc2c1ncn2[C@H]1C[C@H](OCP(=O)(O)OP(=O)(O)O)[C@H]2C[C@H]21` the figure was above 168 h; with `Nc1ncnc2c1ncn2[C@@H]1C=C[C@H](OCP(=O)(O)OP(=O)(O)C(Br)(Br)P(=O)(O)O)C1`, above 168 h.
